We go through 18 molecules from ChEMBL document CHEMBL1137469, “(3R,4S)-4-(2,4,5-Trifluorophenyl)-pyrrolidin-3-ylamine inhibitors of dipeptidyl peptidase IV: synthesis, in vitro, in vivo, and X-ray crystallographic characterization” (Bioorg Med Chem Lett, 2007).

By IC50 is commonly meant the point on the concentration scale where inhibition reaches its midpoint. For orientation: clearance means a measure of how efficiently the substance is removed, as volume per time. What is called bioavailability is the share of a dose that reaches the circulation, judged against a reference dose that is usually intravenous. Higher therefore signals good availability. Usually half-life stands for how long it takes for the measured level to halve. As a reminder, the fraction unbound is the share of the substance not bound to proteins or other matrix. A higher fraction unbound goes with weak binding.

Data set [1] deals with Dipeptidyl peptidase 4 (Homo sapiens, UniProt P27487).
Dipeptidyl peptidase 4, sequence (P27487 whole entry): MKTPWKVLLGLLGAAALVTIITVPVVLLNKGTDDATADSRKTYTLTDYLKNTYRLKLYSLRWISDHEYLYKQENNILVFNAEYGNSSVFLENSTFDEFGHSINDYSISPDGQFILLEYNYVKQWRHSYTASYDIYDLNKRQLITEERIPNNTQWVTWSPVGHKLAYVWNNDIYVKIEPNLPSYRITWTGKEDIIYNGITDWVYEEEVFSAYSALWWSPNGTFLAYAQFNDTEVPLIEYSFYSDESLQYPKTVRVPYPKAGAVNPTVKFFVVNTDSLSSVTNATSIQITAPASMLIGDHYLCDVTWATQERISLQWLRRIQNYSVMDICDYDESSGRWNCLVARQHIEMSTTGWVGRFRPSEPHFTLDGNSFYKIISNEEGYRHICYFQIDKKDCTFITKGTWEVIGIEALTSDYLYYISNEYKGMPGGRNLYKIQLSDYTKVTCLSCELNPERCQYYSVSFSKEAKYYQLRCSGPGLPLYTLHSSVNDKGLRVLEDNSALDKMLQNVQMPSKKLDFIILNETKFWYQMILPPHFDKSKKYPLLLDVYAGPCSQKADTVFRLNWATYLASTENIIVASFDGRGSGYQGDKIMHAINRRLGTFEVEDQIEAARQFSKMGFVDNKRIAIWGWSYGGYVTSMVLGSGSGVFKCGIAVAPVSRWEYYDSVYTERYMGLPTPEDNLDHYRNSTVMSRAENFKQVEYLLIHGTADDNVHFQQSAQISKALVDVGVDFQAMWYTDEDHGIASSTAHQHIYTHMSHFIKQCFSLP
A short description of data set [2]: Plasma clearance in rat. Format: ADME, organism-based.
The nature of data set [3]: Oral bioavailability in rat plasma. The format is ADME, organism-based.
Data set [4] can be described thus: Volume of distribution at steady state in rat plasma. Format: ADME, organism-based. The note with it: read-out: Vdss.
Data set [5] is described as follows: Half life in iv dosed rat plasma. Format: ADME, organism-based.
A short description of data set [6]: Plasma clearance in dog. Format: ADME, organism-based, Canis lupus familiaris.
A short description of data set [7]: Volume of distribution at steady state in dog plasma. Format: ADME, organism-based, Canis lupus familiaris. The note with it: read-out: Vdss.
Data set [8] can be described thus: Percent of unbound ligand in dog plasma. The format is ADME, cell-free, Canis lupus familiaris.
Data set [9] addresses T1, Dipeptidyl peptidase 3 (Homo sapiens, UniProt Q9NY33).
T1 sequence (Q9NY33 whole entry): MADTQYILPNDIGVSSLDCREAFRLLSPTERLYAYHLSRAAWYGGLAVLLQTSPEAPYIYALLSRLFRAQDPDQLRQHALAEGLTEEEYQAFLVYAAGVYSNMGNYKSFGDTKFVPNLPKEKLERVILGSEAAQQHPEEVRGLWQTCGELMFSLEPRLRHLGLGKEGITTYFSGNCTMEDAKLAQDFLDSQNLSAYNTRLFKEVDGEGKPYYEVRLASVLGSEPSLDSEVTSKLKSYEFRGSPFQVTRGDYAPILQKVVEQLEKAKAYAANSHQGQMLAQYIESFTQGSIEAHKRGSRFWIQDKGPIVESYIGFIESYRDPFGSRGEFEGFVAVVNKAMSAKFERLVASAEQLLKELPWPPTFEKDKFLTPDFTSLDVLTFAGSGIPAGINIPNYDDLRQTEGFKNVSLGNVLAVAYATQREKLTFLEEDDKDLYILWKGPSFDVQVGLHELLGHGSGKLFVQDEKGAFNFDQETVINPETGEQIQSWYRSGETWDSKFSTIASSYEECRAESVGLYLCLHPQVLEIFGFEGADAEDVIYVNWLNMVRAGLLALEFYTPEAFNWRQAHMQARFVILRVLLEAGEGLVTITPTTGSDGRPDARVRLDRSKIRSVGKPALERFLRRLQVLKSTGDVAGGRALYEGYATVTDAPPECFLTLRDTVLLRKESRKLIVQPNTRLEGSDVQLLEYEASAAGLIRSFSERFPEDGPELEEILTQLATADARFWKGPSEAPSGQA
In words: Inhibition of DPP3.

The target of data set [10] is Dipeptidyl peptidase 2 (Homo sapiens, UniProt Q9UHL4). In words: Inhibition of human recombinant DPP2.
Data set [11] is described as follows: Half life in iv dosed dog plasma. The format is ADME, organism-based, Canis lupus familiaris.
A short description of data set [12]: Half life in po dosed rat plasma. Format: ADME, organism-based.

Turning to `Cn1cnc2c(N3C[C@H](c4ccccc4)[C@@H](N)C3)ncnc21`, the IC50 in data set [1] is > 3 µM.
As to `N[C@H]1CN(c2nc3c(cc2F)c(=O)c(C(=O)O)cn3C2CC2)C[C@H]1c1ccc(O)cc1` (relative stereo), the half-inhibitory concentration (IC50) in data set [1] was > 3 µM.
Regarding `COc1ccc(-c2cc(N3C[C@H](c4cc(F)c(F)cc4F)[C@@H](N)C3)ncn2)cn1`, the clearance in data set [2] amounted to 4.4 mL/min/kg; in [6] it was 4.8 mL/min/kg. The molecule further yielded a bioavailability in [3] of 57%. The Vd in data set [4] was determined as 0.67 L/kg; in data set [7], 1.9 L/kg. The values for the half-life in data set [5], in data set [11] and in data set [12] were 2.8 h, 5.1 h and 3.3 h, respectively. In addition, in data set [8], the fraction unbound was determined as 0.17. The IC50 in [9] was > 30 µM; in data set [10] it was 19 µM.
In the case of `N[C@H]1CN(c2cc(-c3ccc(O)cc3)ncn2)C[C@@H]1c1ccccc1`, the IC50 in data set [1] was > 3 µM.
On the same count and under the same terms, with `N[C@H]1CN(c2cc(-c3ccccc3Cl)ncn2)C[C@@H]1c1ccccc1` the figure was > 3 µM; with `N[C@H]1CN(c2cnc3ccccc3n2)C[C@@H]1c1ccccc1`, > 3 µM; with `COc1ccc([C@@H]2CN(c3nc4c(cc3F)c(=O)c(C(=O)O)cn4C3CC3)C[C@@H]2N)cc1` (relative stereo), > 3 µM.
In the case of `CC(C)c1ccc([C@@H]2CN(c3nc4c(cc3F)c(=O)c(C(=O)O)cn4C3CC3)C[C@@H]2N)cc1` (relative stereo), the 50% inhibitory concentration (IC50) in data set [1] is > 3 µM.
In the case of `N[C@H]1CN(c2cc(-c3ccccc3)ncn2)C[C@@H]1c1cc(F)c(F)cc1F`, the IC50 in data set [10] was found to be 18 µM.
`N[C@H]1CN(c2ccc3ccccc3n2)C[C@@H]1c1ccccc1`: the IC50 in data set [1] was > 3 µM.
With `N[C@H]1CN(c2cc(Cl)nc(-c3ccccc3)n2)C[C@@H]1c1ccccc1`, in data set [1], the IC50 is > 3 µM.
In the case of `N#Cc1cccnc1N1C[C@H](c2ccccc2)[C@@H](N)C1`, in data set [1], the IC50 is > 3 µM.
The same measure, in the same setting: with `CC(=O)c1ccc(N2C[C@H](c3ccccc3)[C@@H](N)C2)nc1` the figure was > 3 µM; with `CN(C)c1ccc([C@@H]2CN(c3nc4c(cc3F)c(=O)c(C(=O)O)cn4C3CC3)C[C@@H]2N)cc1` (relative stereo), > 3 µM; with `N[C@H]1CN(c2cc(-c3ccc(Cl)cc3)ncn2)C[C@@H]1c1ccccc1`, > 3 µM.
Regarding `N[C@H]1CN(c2cc(-c3cccc(F)c3)ncn2)C[C@@H]1c1cc(F)c(F)cc1F`, the IC50 in data set [10] amounted to 15 µM.
With `COC(=O)c1ccc([C@@H]2CN(c3nc4c(cc3F)c(=O)c(C(=O)O)cn4C3CC3)C[C@@H]2N)cc1` (relative stereo), the IC50 in [1] was > 3 µM.
On to `Nc1ccc([C@@H]2CN(c3nc4c(cc3F)c(=O)c(C(=O)O)cn4C3CC3)C[C@@H]2N)cc1` (relative stereo), for which the IC50 in data set [1] is > 3 µM.
